The results in this text go back to PubChem BioAssay (NCI).

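Growth conditions: 96-well plates. Treatment: test compound, 48 hours, 5 concentrations. Analysis: linear interpolation between bracketing concentrations; unreached endpoints set to highest concentration. GI50 marks 50% less growth. TGI marks complete inhibition of growth.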

Test systems include ACHN renal; HT29 colon; KM12 colon; NCI-H23 lung; NCI/ADR-RES ovarian; OVCAR-8 ovarian; SF-268 CNS; SF-539 CNS; U251 CNS; UACC-257 melanoma.
Holding throughout (assay): growth of human tumour cells (NCI), 48 h

Regarding `CN1CCN(Cc2ccc(NC(=O)c3cccc(C#Cc4cnc(N)c5ncccc45)c3F)cc2C(F)(F)F)CC1`, the GI50 was 0.477 µM with ACHN renal; 0.677 µM in the assay with HT29 colon; 0.332 µM in the assay with KM12 colon; 3.99 µM with NCI-H23 lung; 1.6 µM with NCI/ADR-RES ovarian; 0.828 µM with OVCAR-8 ovarian. Besides, the GI50 was 5.13 µM with SF-268 CNS, 0.733 µM in the assay on SF-539 CNS, 0.741 µM in the assay on U251 CNS and 0.828 µM in the assay with UACC-257 melanoma. Besides, the TGI in the assay with ACHN renal is 1.09 µM; with HT29 colon it was 1.53 µM; in the assay on KM12 colon, 6.51 µM; in the assay on NCI-H23 lung, 16.4 µM; with NCI/ADR-RES ovarian, 5.18 µM; with OVCAR-8 ovarian it was 1.78 µM. The TGI with SF-268 CNS is 14.7 µM; in the assay on SF-539 CNS it was 1.5 µM; in the assay on U251 CNS, 1.43 µM; in the assay on UACC-257 melanoma, 1.65 µM.

In the case of `CN1CN(c2ccccc2)C2(CCN(CCC3COc4ccccc4O3)CC2)C1=O` (stereo not given), the TGI was more than 100 µM in the assay with ACHN renal; 19.6 µM in the assay on HT29 colon; 66.7 µM in the assay on KM12 colon; more than 100 µM in the assay with NCI-H23 lung; 49.6 µM in the assay with NCI/ADR-RES ovarian; more than 100 µM with OVCAR-8 ovarian. For the same compound, the TGI is more than 100 µM in the assay on SF-268 CNS, 38 µM with SF-539 CNS, 66.5 µM in the assay on U251 CNS and 31 µM with UACC-257 melanoma.

Take `CCOC(=O)C(C(=S)SC)c1nn2c(=O)cc(C)nc2s1` (stereo not given): the TGI is 37.8 µM in the assay on ACHN renal; 36.9 µM with HT29 colon; 65.3 µM in the assay with KM12 colon; 39 µM with NCI-H23 lung; 54.8 µM with NCI/ADR-RES ovarian; 35.5 µM with OVCAR-8 ovarian. In addition, the TGI with SF-268 CNS is 34 µM; in the assay on SF-539 CNS it was 36 µM; with U251 CNS, 30.6 µM; in the assay with UACC-257 melanoma, 44.2 µM.

For `CCOC(=O)c1c2c(c(O)c3ccccc3c(O)n(Cc3ccccc3)c1C)C(=O)C=CC2=O`, the TGI in the assay on ACHN renal, in the assay on HT29 colon, in the assay on KM12 colon, with NCI-H23 lung, with NCI/ADR-RES ovarian and in the assay with OVCAR-8 ovarian was more than 100 µM in each case. In addition, the TGI in the assay with SF-268 CNS, with SF-539 CNS, in the assay on U251 CNS and in the assay on UACC-257 melanoma was more than 100 µM each time.

Take `Cc1ccc2nc(C=Nc3ccc(Cl)cc3)cc(C)c2c1`: the TGI is more than 96.4 µM in the assay with ACHN renal; 37.8 µM with HT29 colon; 24.7 µM in the assay on KM12 colon; 38 µM in the assay with NCI-H23 lung; 32.1 µM with NCI/ADR-RES ovarian; 23.3 µM with OVCAR-8 ovarian. The TGI in the assay on SF-268 CNS came to 59.2 µM; with SF-539 CNS, 12.8 µM; in the assay on U251 CNS, 32.9 µM; in the assay with UACC-257 melanoma, 36.5 µM.

With `C[N+](C)(C)CC(=O)N/N=C/c1ccncc1`, the TGI in the assay with ACHN renal, in the assay with HT29 colon, with KM12 colon, in the assay on NCI-H23 lung, with NCI/ADR-RES ovarian and in the assay with OVCAR-8 ovarian was more than 100 µM throughout. Further, the TGI with SF-268 CNS, with SF-539 CNS, in the assay on U251 CNS and in the assay on UACC-257 melanoma was more than 100 µM throughout.

Turning to `O=C(CCCl)NNC1=NCCCN1`, the TGI in the assay on ACHN renal, in the assay with HT29 colon, in the assay with KM12 colon, in the assay with NCI-H23 lung, with NCI/ADR-RES ovarian and with OVCAR-8 ovarian was more than 100 µM each time. For the same compound, the TGI with SF-268 CNS, in the assay with SF-539 CNS, in the assay on U251 CNS and with UACC-257 melanoma was more than 100 µM each time.

For the compound `CC(=O)Nc1nnc(S(C)(=O)=O)s1`, the TGI in the assay on ACHN renal, in the assay with HT29 colon, in the assay with KM12 colon, in the assay with NCI-H23 lung, in the assay with NCI/ADR-RES ovarian and in the assay on OVCAR-8 ovarian was more than 100 µM each time. In addition, the TGI with SF-268 CNS, with SF-539 CNS, in the assay with U251 CNS and in the assay with UACC-257 melanoma was more than 100 µM in each case.

Regarding `COc1ccc2nc3ccc(OC)cc3c(SCc3ccccc3)c2c1`, the TGI in the assay with ACHN renal, in the assay with HT29 colon, in the assay on KM12 colon, in the assay on NCI-H23 lung, in the assay with NCI/ADR-RES ovarian and with OVCAR-8 ovarian was more than 100 µM throughout. The TGI in the assay on SF-268 CNS, in the assay with SF-539 CNS, in the assay with U251 CNS and with UACC-257 melanoma was more than 100 µM throughout.

Turning to `CCOc1cc2oc(C)cc(=O)c2c(OC)c1C=Nc1ccc(Cn2c(C)nc3ccccc32)cc1`, the TGI in the assay with ACHN renal, in the assay with HT29 colon, in the assay with KM12 colon, with NCI-H23 lung, in the assay on NCI/ADR-RES ovarian and in the assay on OVCAR-8 ovarian was more than 100 µM throughout. Moreover, the TGI with SF-268 CNS, with SF-539 CNS, in the assay on U251 CNS and with UACC-257 melanoma was more than 100 µM in each case.

As to `COC1OC(COC(=O)c2cc(O)c(O)c(O)c2)C(OC(=O)c2cc(O)c(O)c(O)c2)C(OC(=O)c2cc(O)c(O)c(O)c2)C1OC(=O)c1cc(O)c(O)c(O)c1` (stereo not given), the TGI was more than 100 µM in the assay with ACHN renal; more than 100 µM in the assay on HT29 colon; more than 100 µM in the assay on KM12 colon; more than 100 µM with NCI-H23 lung; 98.4 µM with NCI/ADR-RES ovarian; more than 100 µM with OVCAR-8 ovarian. The TGI with SF-268 CNS was more than 100 µM; in the assay on SF-539 CNS, 37.1 µM; with U251 CNS, more than 100 µM; in the assay with UACC-257 melanoma, more than 100 µM.

For `CCOP(=O)(OCC)/C(C#N)=C/c1cnc[nH]1`, the TGI in the assay with ACHN renal, in the assay with HT29 colon, with KM12 colon, in the assay with NCI-H23 lung, in the assay on NCI/ADR-RES ovarian and in the assay on OVCAR-8 ovarian was more than 100 µM each time. For the same compound, the TGI in the assay with SF-268 CNS, in the assay with SF-539 CNS, in the assay on U251 CNS and with UACC-257 melanoma was more than 100 µM throughout.

`COc1ccc2[nH]c3c(C)c4ccnc(NCCCN(C)CCCNc5ccc6ncn7c8ccccc8c(=O)c5c67)c4c(C)c3c2c1`: the TGI worked out at 0.918 µM in the assay on ACHN renal; 1.03 µM with HT29 colon; 4.65 µM in the assay on KM12 colon; 1.94 µM in the assay with NCI-H23 lung; 4.55 µM in the assay with NCI/ADR-RES ovarian; 7.16 µM with OVCAR-8 ovarian. Also, the TGI came to 17.3 µM in the assay on SF-268 CNS, 0.379 µM in the assay on SF-539 CNS, 1.12 µM in the assay on U251 CNS and 2.9 µM with UACC-257 melanoma.

As for `COc1cc(-c2[o+]c3cc(O)cc(O)c3cc2O)cc(O)c1O`, the TGI with ACHN renal, with HT29 colon, with KM12 colon, with NCI-H23 lung, in the assay on NCI/ADR-RES ovarian and in the assay with OVCAR-8 ovarian was more than 100 µM each time. Also, the TGI in the assay with SF-268 CNS, with SF-539 CNS, in the assay on U251 CNS and with UACC-257 melanoma was more than 100 µM throughout.

In the case of `Cn1c(=O)sc2cc(C(=S)N3CCC(Cc4ccccc4)CC3)ccc21`, the TGI in the assay on ACHN renal, in the assay on HT29 colon, in the assay with KM12 colon, in the assay with NCI-H23 lung, in the assay with NCI/ADR-RES ovarian and in the assay on OVCAR-8 ovarian was more than 100 µM in each case. For the same compound, the TGI is more than 100 µM with SF-268 CNS, more than 100 µM with SF-539 CNS, 78.1 µM with U251 CNS and more than 100 µM with UACC-257 melanoma.

Take `O=C(CSc1nc2ccc(I)cc2c(=O)n1Cc1ccccc1)NNC(=O)c1ccccc1`: the TGI in the assay with ACHN renal is 75.4 µM; in the assay with HT29 colon, more than 100 µM; with KM12 colon, more than 100 µM; in the assay on NCI-H23 lung, 68.8 µM; with NCI/ADR-RES ovarian it was 49 µM; in the assay on OVCAR-8 ovarian, 20.7 µM. In addition, the TGI in the assay with SF-268 CNS is 20.8 µM; in the assay on SF-539 CNS it was 8.11 µM; in the assay on U251 CNS, more than 100 µM; in the assay with UACC-257 melanoma it was 57.2 µM.

As to `O=C(O)CCCc1ccc2ccccc2c1`, the TGI in the assay with ACHN renal, with HT29 colon, in the assay on KM12 colon, in the assay with NCI-H23 lung, with NCI/ADR-RES ovarian and in the assay on OVCAR-8 ovarian was more than 100 µM in each case. Further, the TGI in the assay with SF-268 CNS, with SF-539 CNS, in the assay on U251 CNS and with UACC-257 melanoma was more than 100 µM each time.

In the case of `Cc1cccc(-c2cc(=O)c3c(C)cc(C)nc3[nH]2)c1`, the TGI in the assay with ACHN renal was more than 100 µM; in the assay on HT29 colon, 19.1 µM; with KM12 colon it was 21.9 µM; with NCI-H23 lung, 40.4 µM; in the assay with NCI/ADR-RES ovarian it was 4.68 µM; in the assay on OVCAR-8 ovarian, more than 100 µM. Moreover, the TGI in the assay with SF-268 CNS was more than 100 µM; in the assay on SF-539 CNS, 12.1 µM; in the assay on U251 CNS, 37.6 µM; with UACC-257 melanoma, more than 100 µM.

On to `CCOC1Oc2ccccc2-c2nc(SC)ncc21` (stereo not given), for which the TGI with ACHN renal, with HT29 colon, in the assay with KM12 colon, in the assay with NCI-H23 lung, in the assay on NCI/ADR-RES ovarian and in the assay with OVCAR-8 ovarian was more than 100 µM in each case. Also, the TGI with SF-268 CNS, in the assay on SF-539 CNS, with U251 CNS and with UACC-257 melanoma was more than 100 µM throughout.

Turning to `c1ccc2c(c1)NC1(N3CCCCC3)CCCCC21` (stereo not given), the TGI with ACHN renal, in the assay on HT29 colon, in the assay with KM12 colon, in the assay on NCI-H23 lung, with NCI/ADR-RES ovarian and in the assay on OVCAR-8 ovarian was more than 100 µM in each case. Moreover, the TGI in the assay with SF-268 CNS, in the assay with SF-539 CNS, with U251 CNS and in the assay with UACC-257 melanoma was more than 100 µM in each case.
